# Experimental data from ChEMBL document CHEMBL3046319, “PCR-RFLP detection of the E198A mutation conferring resistance to benzimidazoles in field isolates of Monilinia laxa from Greece” (Crop Prot, 2012).
# The source made the active and inactive calls. The rule behind the calls is not given here.
# Assays:
# Monilinia laxa [1] = experiment: Fungicidal activity against Monilinia laxa isolate MLK12 assessed as mean number of conidia produced in the colony at 25 degC after 12 days by haemocytometer; type: functional
# Monilinia laxa [2] = experiment: Fungicidal activity against Monilinia laxa isolate MLP4 assessed as virulence in prune fruits assessed as virulence treated 10 min prior to mycelial inoculation at 24 degC after 10 days relative to isolate MLX1by pathogenicity bioassay; type: functional
# Monilinia laxa [3] = experiment: Fungicidal activity against Monilinia laxa isolate MLC1 assessed as reduction in mycelial growth rate at 1 to 10 ug/ml at 31 degC after 5 days; type: functional, organism-based
# Monilinia laxa [4] = experiment: Fungicidal activity against Monilinia laxa isolate MLX1 assessed as mycelial growth at 1 ug/ml at 25 degC after 4 days; type: functional
# Monilinia laxa [5] = experiment: Fungicidal activity against Monilinia laxa isolate MLC2 assessed as mean mycelial colony diameter at 25 degC after 4 days; type: functional
# Monilinia laxa [6] = experiment: Fungicidal activity against Monilinia laxa isolate MLA1 assessed as mycelial growth at 1 ug/ml at 25 degC after 4 days; type: functional
# Monilinia laxa [7] = experiment: Fungicidal activity against Monilinia laxa isolate MLG1 assessed as mean number of conidia produced in the colony at 25 degC after 12 days by haemocytometer; type: functional
# Monilinia laxa [8] = experiment: Fungicidal activity against Monilinia laxa isolate MLC3 assessed as reduction in mycelial growth rate at 1 to 10 ug/ml at 28 degC after 8 days; type: functional, organism-based
# Monilinia laxa [9] = experiment: Fungicidal activity against Monilinia laxa isolate MLP2 assessed as reduction in mycelial growth rate at 1 to 10 ug/ml at 31 degC after 5 days; type: functional, organism-based
# Monilinia laxa [10] = experiment: Fungicidal activity against Monilinia laxa isolate KX1 assessed as reduction in mycelial growth rate at 1 to 10 ug/ml at 31 degC after 5 days; type: functional, organism-based
# Monilinia laxa [11] = experiment: Fungicidal activity against Monilinia laxa isolate MLNS2 assessed as reduction in mycelial growth rate at 25 degC after 4 days; type: functional, organism-based; details: isolate MLNS2, 96 h
# Monilinia laxa [12] = experiment: Fungicidal activity against Monilinia laxa isolate MLG7 assessed as reduction in mycelial growth rate at 25 degC after 4 days; type: functional, organism-based; details: isolate MLG7, 96 h
# Monilinia laxa [13] = experiment: Fungicidal activity against Monilinia laxa isolate MLC4 assessed as reduction in mycelial growth rate at 1 to 10 ug/ml at 31 degC after 5 days; type: functional, organism-based
# Monilinia laxa [14] = experiment: Fungicidal activity against Monilinia laxa isolate MLK6 assessed as reduction in mycelial growth rate at 1 to 10 ug/ml at 28 degC after 8 days; type: functional, organism-based
# Monilinia laxa [15] = experiment: Fungicidal activity against Monilinia laxa isolate MLK1 assessed as reduction in mycelial growth rate at 1 to 10 ug/ml at 25 to 28 degC; type: functional, organism-based
# Monilinia laxa [16] = experiment: Fungicidal activity against Monilinia laxa isolate MLK1 assessed as mycelial growth at 1 ug/ml at 25 degC after 4 days; type: functional
# Monilinia laxa [17] = experiment: Fungicidal activity against Monilinia laxa isolate MLA1 assessed as reduction in mycelial growth rate at 25 degC after 4 days; type: functional, organism-based; details: isolate MLA1, 96 h
# Monilinia laxa [18] = experiment: Fungicidal activity against Monilinia laxa isolate MLC2 assessed as reduction in mycelial growth rate at 1 to 10 ug/ml at 28 degC after 8 days; type: functional, organism-based
# Monilinia laxa [19] = experiment: Fungicidal activity against Monilinia laxa isolate MLK1 assessed as reduction in mycelial growth rate at 1 to 10 ug/ml at 28 degC after 8 days; type: functional, organism-based
# Monilinia laxa [20] = experiment: Fungicidal activity against Monilinia laxa isolate MLK12 assessed as reduction in mycelial growth rate at 25 degC after 4 days; type: functional, organism-based; details: isolate MLK12, 96 h
# Monilinia laxa [21] = experiment: Fungicidal activity against Monilinia laxa isolate MLX5 assessed as mycelial growth at 1 ug/ml at 25 degC after 4 days; type: functional
# Monilinia laxa [22] = experiment: Fungicidal activity against Monilinia laxa isolate MLX1 assessed as reduction in mycelial growth rate at 25 degC after 4 days; type: functional, organism-based; details: isolate MLX1, 96 h
# Monilinia laxa [23] = experiment: Fungicidal activity against Monilinia laxa isolate MLK4 assessed as reduction in mycelial growth rate at 1 to 10 ug/ml at 25 to 28 degC; type: functional, organism-based
# Monilinia laxa [24] = experiment: Fungicidal activity against Monilinia laxa isolate MLBO4 assessed as reduction in mycelial growth rate at 25 degC after 4 days; type: functional, organism-based; details: isolate MLBO4, 96 h
# Monilinia laxa [25] = experiment: Fungicidal activity against Monilinia laxa isolate MLB1 assessed as reduction in mycelial growth rate at 1 to 10 ug/ml at 25 to 28 degC; type: functional, organism-based
# Monilinia laxa [26] = experiment: Fungicidal activity against Monilinia laxa isolate MLBO5 assessed as mycelial growth at 1 ug/ml at 25 degC after 4 days; type: functional
# Monilinia laxa [27] = experiment: Fungicidal activity against Monilinia laxa isolate MLC6 assessed as reduction in mycelial growth rate at 1 to 10 ug/ml at 31 degC after 5 days; type: functional, organism-based
# Monilinia laxa [28] = experiment: Fungicidal activity against Monilinia laxa isolate MLBO3 assessed as reduction in mycelial growth rate at 25 degC after 4 days; type: functional, organism-based; details: isolate MLBO3, 96 h
# Monilinia laxa [29] = experiment: Fungicidal activity against Monilinia laxa isolate KX3 assessed as reduction in mycelial growth rate at 1 to 10 ug/ml at 31 degC after 5 days; type: functional, organism-based
# Monilinia laxa [30] = experiment: Fungicidal activity against Monilinia laxa isolate MLX1 assessed as reduction in mycelial growth rate at 1 to 10 ug/ml at 31 degC after 5 days; type: functional, organism-based
# Monilinia laxa [31] = experiment: Fungicidal activity against Monilinia laxa isolate MLNS2 assessed as reduction in mycelial growth rate at 1 to 10 ug/ml at 25 to 28 degC; type: functional, organism-based
# Monilinia laxa [32] = experiment: Fungicidal activity against Monilinia laxa isolate MLK12 assessed as mycelial growth at 1 ug/ml at 25 degC after 4 days; type: functional
# Monilinia laxa [33] = experiment: Fungicidal activity against Monilinia laxa isolate MLP4 assessed as mean mycelial colony diameter at 25 degC after 4 days; type: functional
# Monilinia laxa [34] = experiment: Fungicidal activity against Monilinia laxa isolate MLX4 assessed as reduction in mycelial growth rate at 1 to 10 ug/ml at 31 degC after 5 days; type: functional, organism-based
# Monilinia laxa [35] = experiment: Fungicidal activity against Monilinia laxa isolate MLK5 assessed as reduction in mycelial growth rate at 1 to 10 ug/ml at 31 degC after 5 days; type: functional, organism-based
# Monilinia laxa [36] = experiment: Fungicidal activity against Monilinia laxa isolate MLX5 assessed as reduction in mycelial growth rate at 1 to 10 ug/ml at 31 degC after 5 days; type: functional, organism-based
# Monilinia laxa [37] = experiment: Fungicidal activity against Monilinia laxa isolate MLAl8 assessed as reduction in mycelial growth rate at 1 to 10 ug/ml at 25 to 28 degC; type: functional, organism-based
# Monilinia laxa [38] = experiment: Fungicidal activity against Monilinia laxa isolate KX5 assessed as reduction in mycelial growth rate at 1 to 10 ug/ml at 28 degC after 8 days; type: functional, organism-based
# Monilinia laxa [39] = experiment: Fungicidal activity against Monilinia laxa isolate MLAl8 assessed as reduction in mycelial growth rate at 1 to 10 ug/ml at 28 degC after 8 days; type: functional, organism-based
# Monilinia laxa [40] = experiment: Fungicidal activity against Monilinia laxa isolate KX1 assessed as reduction in mycelial growth rate at 25 degC after 4 days; type: functional, organism-based; details: isolate KX1, 96 h
# Monilinia laxa [41] = experiment: Fungicidal activity against Monilinia laxa isolate MLK1 assessed as virulence in prune fruits assessed as virulence treated 10 min prior to mycelial inoculation at 24 degC after 10 days relative to isolate MLX1by pathogenicity bioassay; type: functional
# Monilinia laxa [42] = experiment: Fungicidal activity against Monilinia laxa isolate MLP2 assessed as reduction in mycelial growth rate at 25 degC after 4 days; type: functional, organism-based; details: isolate MLP2, 96 h
smiles,measurement,setting,value
COC(=O)Nc1nc2ccccc2[nH]1 [CARBENDAZIM],Activity,Monilinia laxa [1],4.7 /cm2
same,Activity,Monilinia laxa [2],100%
same,inhibition,Monilinia laxa [3],Active
same,Activity,Monilinia laxa [4],100%
same,Activity,Monilinia laxa [5],29.5 mm
same,Activity,Monilinia laxa [6],0%
same,Activity,Monilinia laxa [7],5.85 /cm2
same,inhibition,Monilinia laxa [8],inactive
same,inhibition,Monilinia laxa [9],Active
same,inhibition,Monilinia laxa [10],Active
same,EC50,Monilinia laxa [11],> 50 µg/mL
same,EC50,Monilinia laxa [12],0.12 µg/mL
same,inhibition,Monilinia laxa [13],Active
same,inhibition,Monilinia laxa [14],inactive
same,inhibition,Monilinia laxa [15],inactive
same,Activity,Monilinia laxa [16],99.9%
same,EC50,Monilinia laxa [17],0.06 µg/mL
same,inhibition,Monilinia laxa [18],inactive
same,inhibition,Monilinia laxa [19],inactive
same,EC50,Monilinia laxa [20],> 50 µg/mL
same,Activity,Monilinia laxa [21],0%
same,EC50,Monilinia laxa [22],> 50 µg/mL
same,inhibition,Monilinia laxa [23],inactive
same,EC50,Monilinia laxa [24],0.05 µg/mL
same,inhibition,Monilinia laxa [25],inactive
same,Activity,Monilinia laxa [26],0%
same,inhibition,Monilinia laxa [27],Active
same,EC50,Monilinia laxa [28],0.05 µg/mL
same,inhibition,Monilinia laxa [29],Active
same,inhibition,Monilinia laxa [30],Active
same,inhibition,Monilinia laxa [31],inactive
same,Activity,Monilinia laxa [32],95.82%
same,Activity,Monilinia laxa [33],32.5 mm
same,inhibition,Monilinia laxa [34],Active
same,inhibition,Monilinia laxa [35],Active
same,inhibition,Monilinia laxa [36],Active
same,inhibition,Monilinia laxa [37],inactive
same,inhibition,Monilinia laxa [38],inactive
same,inhibition,Monilinia laxa [39],inactive
same,EC50,Monilinia laxa [40],0.06 µg/mL
same,Activity,Monilinia laxa [41],97.77%
same,EC50,Monilinia laxa [42],0.06 µg/mL
